Results as given in US8809347B2, “Bicyclic aryl and bicyclic heteroaryl substituted triazoles useful as AXL inhibitors” (Rigel Pharmaceuticals, Inc., priority 2006, dated 2014).

What follows are compounds tested against T1, Axl (Homo sapiens, UniProt P30530) (assay: Phospho-Akt in-cell Western assay (inhibition of Axl activity)). Details: Hela cells; 1 hr pre-treatment; stimulation by Axl-antibody cross-linking; phospho-Akt chemiluminescence normalized to relative cell number.
T1 construct: Cells: Hela cells; endogenous in cells; host or cells: HeLa cells
T1 sequence (P30530 26-894): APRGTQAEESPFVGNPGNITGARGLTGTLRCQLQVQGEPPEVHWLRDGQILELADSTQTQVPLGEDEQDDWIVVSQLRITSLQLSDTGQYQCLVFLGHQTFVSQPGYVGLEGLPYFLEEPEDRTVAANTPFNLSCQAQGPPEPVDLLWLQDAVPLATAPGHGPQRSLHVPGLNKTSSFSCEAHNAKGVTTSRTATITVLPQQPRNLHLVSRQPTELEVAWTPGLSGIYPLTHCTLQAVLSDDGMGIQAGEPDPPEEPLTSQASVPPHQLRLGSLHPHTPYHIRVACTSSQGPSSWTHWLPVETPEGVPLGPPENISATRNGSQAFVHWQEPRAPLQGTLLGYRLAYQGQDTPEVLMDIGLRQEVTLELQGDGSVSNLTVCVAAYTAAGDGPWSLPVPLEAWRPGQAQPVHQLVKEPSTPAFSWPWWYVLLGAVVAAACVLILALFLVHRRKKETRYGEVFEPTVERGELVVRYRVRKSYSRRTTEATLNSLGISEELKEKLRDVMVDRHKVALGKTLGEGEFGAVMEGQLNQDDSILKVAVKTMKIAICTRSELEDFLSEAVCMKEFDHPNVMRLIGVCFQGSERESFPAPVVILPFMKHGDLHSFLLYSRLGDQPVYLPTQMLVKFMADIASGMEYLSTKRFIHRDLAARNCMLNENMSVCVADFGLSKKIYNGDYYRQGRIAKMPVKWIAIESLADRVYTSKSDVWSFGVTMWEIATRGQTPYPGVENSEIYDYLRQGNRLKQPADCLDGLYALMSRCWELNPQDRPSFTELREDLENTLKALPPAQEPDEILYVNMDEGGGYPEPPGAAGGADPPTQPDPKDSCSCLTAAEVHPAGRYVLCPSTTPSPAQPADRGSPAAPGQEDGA
Format: cell-based
Experimental: The compounds of the invention were tested in the following assay for their ability to inhibit Axl activity.
Phospho-Akt in-Cell Western Assay
• Cell culture plate: 96 well assay plate (Corning 3610), white, clear bottom, tissue-culture treated. • Cells: Hela cells. • Starvation medium: For Axl stimulation: 0.5% FCS (fetal calf serum) in DMEM, plus Axl/Fc (extracellular domain of AXL fused to immunoglobulin Fc region) (R&D, 154-AL) 500 ng/mL. • For EGF (epidermal growth factor) stimulation: 0.5% FCS in DMEM (Dulbecco's modified Eagles medium). • Poly-L-Lysine 0.01% solution (the working solution): […], dilute In PBS (phosphate buffered saline). • Axl antibody cross-linking: • 1st: Mouse anti-Axl (R&D, MAB154). • 2nd: Biotin-SP-conjugated AffiniPure goat anti-mouse IgG (H+ L) (Jackson ImmunoResearch #115-065-003). • Fixing buffer: 4% formaldehyde in PBS. • Wash buffer: 0.1% TritonX-100 in PBS. • Quenching buffer: 3% H2O2, 0.1% Azide in wash buffer, Azide and hydrogen peroxide (H2O2) are added fresh. • Blocking buffer: 5% BSA in TBST (tris buffered saline plus 0.1% Tween 20). • Primary antibody: Rabbit anti-human Phospho-Akt antibody (Cell Signaling 9271): 1×250 diluted in blocking buffer. • Secondary antibody: HRP (horse radish peroxidase)-conjugated Goat anti-Rabbit secondary, stock solution: Jackson ImmunoResearch (Goat anti-Rabbit HRP, #111-035-144) 1:1 diluted in glycerol, store at −20° C. The working solution: 1×2000 dilution of stock in blocking buffer. • Chemiluminescent working solution (Pierce, 37030): SuperSignal ELISA (enzyme linked immunosorbant assay) Pico Chemiluminescent substrate. • Crystal Violet solution: Stock: 2.5% Crystal violet in methanol, filtered and kept at ambient temperature. The working solution: dilute the stock 1:20 with PBS immediately before use. • 10% SDS: working solution: 5% SDS (sodium dodecylsulfate), diluted in PBS Methods: Day 1:
A 96 well TC (tissue culture treated) plate was coated with 10 μg/mL poly-L-Lysine at 37° C. for 30 min, washed twice with PBS, and air-dried for 5 minutes before cells were added. Hela cells were seeded at 10,000 cells/well and the cells were starved in 100 μL starvation medium containing Axl/Fc for 24 hrs.
The cells were pre-treated with test compounds by adding 100 μL of 2× test compound to the starvation medium on the cells. The cells were incubated at 37° C. for 1 hr before stimulation.
The cells were stimulated by Axl-antibody cross-linking as follows: A 5× 1st/2nd Axl antibody mixture was made (37.5 μg/mL 1st/100 μg/mL 2nd) in starvation medium and nutated at 4° C. with thorough mixing for 1-2 hours for clustering. The resulting mix was warmed to 37° C. 50 μL of 5× Axl 1st/2nd of antibody cluster was added to the cells and the cells were incubated at 37° C. for 5 min.
After 5 minutes stimulation, the plate was flicked to remove medium and the plate was tapped onto paper towels. Formaldehyde (4.0% in PBS, 100 μL) was added to fix the cells and the cells were incubated at ambient temperature for 20 min without shaking.
The cells were washed with a plate washer buffer to remove the formaldehyde solution. The plate was flicked to removed excess wash buffer and tapped onto paper towels. Quenching buffer (100 μL) was added to each well and the cells were incubated at ambient temperature for 20 minutes without shaking.
The cells were washed with a plate washer buffer to remove the quenching buffer. Blocking buffer (100 μL) was added and the cells were incubated at ambient temperature for at least an hour with gentle shaking.
The cells were washed with a plate washer buffer and diluted primary antibody (50 μL) was added to each well (blocking buffer was added to the negative control wells instead). The plates were incubated overnight at 4° C. with gentle shaking.
The wash buffer was removed, diluted secondary antibody (100 μL) was added, and the cells were incubated at ambient temperature for 1 hour with gentle shaking. […]

| SMILES | IC50 |
| --- | --- |
| Cc1csc2c(-n3nc(Nc4ccc5c(c4)CCCN(C4CC6CCC4C6)CC5)nc3N)nc(Cl)nc12 (stereo not drawn) [Compound 38, N^3-(3-(bicyclo[2.2.1]heptan-2-yl)-1,2,3,4,5,6-hexahydrobenzo[d]azocin-8-yl)-1-(2-chloro-7-methylthieno[3,2-d]pyrimidin-4-yl)-1H-1,2,4-triazole-3,5-diamine] | < 1000 nM |
| COc1cc2ncnc(-n3nc(Nc4ccc5c(c4)CCCN(C4CC6CCC4C6)CC5)nc3N)c2cc1OC (stereo not drawn) [Compound 39, N^3-(3-(bicyclo[2.2.1]heptan-2-yl)-1,2,3,4,5,6-hexahydrobenzo[d]azocin-8-yl)-1-(6,7-dimethoxyquinazolin-4-yl)-1H-1,2,4-triazole-3,5-diamine] | < 1000 nM |
| Cc1csc2c(-n3nc(Nc4cnc5c(c4)CCC(N4CCCC4)CCC5)nc3N)ncnc12 (stereo not drawn) [Compound 40, 1-(7-methylthieno[3,2-d]pyrimidin-4-yl)-N^3-(7-(pyrrolidin-1-yl)-5,6,7,8,9,10-hexahydrocycloocta[b]pyridin-3-yl)-1H-1,2,4-triazole-3,5-diamine] | < 1000 nM |
| Cc1csc2c(-n3nc(Nc4ccc5c(c4)CCCN(C4CCCC4)CC5)nc3N)ncnc12 [Compound 41, N^3-(3-cyclopentyl-1,2,3,4,5,6-hexahydrobenzo[d]azocin-8-yl)-1-(7-methylthieno[3,2-d]pyrimidin-4-yl)-1H-1,2,4-triazole-3,5-diamine] | < 1000 nM |
| Cc1csc2c(-n3nc(Nc4ccc5c(c4)CCCN(C4CC6CCC4C6)CC5)nc3N)ncnc12 (stereo not drawn) [Compound 42, N^3-(3-(bicyclo[2.2.1]heptan-2-yl)-1,2,3,4,5,6-hexahydrobenzo[d]azocin-8-yl)-1-(7-methylthieno[3,2-d]pyrimidin-4-yl)-1H-1,2,4-triazole-3,5-diamine] | < 1000 nM |
| Cc1csc2c(-n3nc(Nc4cnc5c(c4)CCC(NC4CCCCC4)CCC5)nc3N)ncnc12 (stereo not drawn) [Compound 43, N^3-(7-(cyclohexylamino)-5,6,7,8,9,10-hexahydrocycloocta[b]pyridin-3-yl)-1-(7-methylthieno[3,2-d]pyrimidin-4-yl)-1H-1,2,4-triazole-3,5-diamine] | < 1000 nM |
| Cc1csc2c(-n3nc(Nc4cnc5c(c4)CCC(N4CCN(C)CC4)CCC5)nc3N)ncnc12 (stereo not drawn) [Compound 44, N^3-(7-(4-methylpiperazin-1-yl)-5,6,7,8,9,10-hexahydrocycloocta[b]pyridin-3-yl)-1-(7-methylthieno[3,2-d]pyrimidin-4-yl)-1H-1,2,4-triazole-3,5-diamine] | < 1000 nM |

Next, values leading:

| IC50 | SMILES |
| --- | --- |
| 1000 to 10000 nM | Nc1nc(Nc2ccc(N3CCC(N4CCCC4)CC3)c(F)c2)nn1-c1cc(-c2ccccc2)c2c(n1)CCCCCC2 [Compound 45, N^3-(3-fluoro-4-(4-(pyrrolidin-1-yl)piperidin-1-yl)phenyl)-1-(4-phenyl-5,6,7,8,9,10-hexahydrocycloocta[b]-pyridin-2-yl)-1H-1,2,4-triazole-3,5-diamine] |
| 1000 to 10000 nM | CN1CCN(c2ccc(Nc3nc(N)n(-c4cc(-c5ccccc5)c5c(n4)CCCCCC5)n3)cc2)CC1 [Compound 46, N^3-(4-(4-methylpiperazin-1-yl)phenyl)-1-(4-phenyl-5,6,7,8,9,10-Hexahydrocycloocta[b]-pyridin-2-yl)-1H-1,2,4-triazole-3,5-diamine] |
| 1000 to 10000 nM | Nc1nc(Nc2ccc(OCCN3CCCC3)cc2)nn1-c1cc(-c2ccccc2)c2c(n1)CCCCCC2 [Compound 47, N^3-(4-(2-(pyrrolidin-1-yl)ethoxy)phenyl)-1-(4-phenyl-5,6,7,8,9,10-hexahydrocycloocta[b]-pyridin-2-yl)-1H-1,2,4-triazole-3,5-diamine] |
| < 1000 nM | Cc1csc2c(-n3nc(Nc4ccc5c(c4)C(=O)NCCCC5)nc3N)nc(Cl)nc12 [Compound 48, N^3-(1-oxo-1,2,3,4,5,6-hexahydrobenzo[c]azocin-9-yl)-1-(2-chloro-7-methylthieno[3,2-d]pyrimidin-4-yl)-1H-1,2,4-triazole-3,5-diamine] |
| 1000 to 10000 nM | Cc1csc2c(-n3nc(Nc4ccc5c(c4)C(=O)NCCCC5)nc3N)ncnc12 [Compound 49, N^3-(1-oxo-1,2,3,4,5,6-hexahydrobenzo[c]azocin-9-yl)-1-(7-methylthieno[3,2-d]pyrimidin-4-yl)-1H-1,2,4-triazole-3,5-diamine] |
| < 1000 nM | COc1cc2ncnc(-n3nc(Nc4ccc5c(c4)C(=O)NCCCC5)nc3N)c2cc1OC [Compound 50, N^3-(1-oxo-1,2,3,4,5,6-hexahydrobenzo[c]azocin-9-yl)-1-(6,7-dimethoxyquinazolin-4-yl)-1H-1,2,4-triazole-3,5-diamine] |
| < 1000 nM | Nc1nc(Nc2ccc(N3CCC(N4CCCCCC4)CC3)nc2)nn1-c1ncnc2c1CCCCCC2 [Compound 51, N^3-(6-(4-(azepan-1-yl)piperidin-1-yl)pyridin-3-yl)-1-(5,6,7,8,9,10-hexahydrocycloocta[d]pyrimidin-4-yl)-1H-1,2,4-triazole-3,5-diamine] |
| < 1000 nM | Nc1nc(Nc2ccc(N3CCC(CN4CCCC4)CC3)nc2)nn1-c1ncnc2c1CCCCCC2 [Compound 52, N^3-(6-(4-((pyrrolidin-1-yl)methyl)piperidin-1-yl)pyridin-3-yl)-1-(5,6,7,8,9,10-hexahydrocycloocta[d]pyrimidin-4-yl)-1H-1,2,4-triazole-3,5-diamine] |
